Results: publication PMC9227096, “Design, Synthesis, and In Vitro, In Silico and In Cellulo Evaluation of New Pyrimidine and Pyridine Amide and Carbamate Derivatives as Multi-Functional Cholinesterase Inhibitors” (Pharmaceuticals, 2022)
Read-outs that look alike come from different tables or passages of the source.

How the values were obtained:
[1] = Chelation studies: UV-Vis titration and Job's plot; type: physicochemical; conditions: for chelating ability on the biometals Fe^3+, Cu^2+ and Zn^2+: UV-Vis spectra in MeOH, ligand/metal ratio 1:3, 1:5 or 1:10
Description: Initially, the UV–Vis spectrum of the ligand was recorded and compared with the spectra obtained by adding an excess of metal to the ligand solution, maintaining the same concentration of the ligand (ligand/metal ratio 1:3, 1:5 or 1:10). The variation of the UV–Vis spectrum of the ligand in presence of metal ions is indicative of the formation of the complex. […] As previously supposed, the chelating activity of these compounds is due to the presence of two adjacent nitrogen atoms in the 2-amino-pyridine moiety.
UV–Vis titrations of these compounds were carried out with the metal ions with which they form complexes, recording first the UV–Vis spectrum of the ligand and then the spectra obtained by mixing solutions of ligand and metal according to increasing metal/ligand molar ratios (Figure 7a).
The stoichiometries of metal–ligand complexes were determined through Job’s method.
The mole fraction X, which causes the maximum variation of absorbance, is extracted from the graph and then the value of the coefficient n, which corresponds to the number of ligand molecules per cation, is obtained (Figure 7b). The UV–Vis titrations spectra and the Job’s plots of all tested compound are reported in the Supplementary Materials (Figures S8–S17), while the data extrapolated from Job’s plots are summarized in Table 5.
For the UV–Vis titration, solutions 10^−3 M in MeOH of compounds 12, 14 and 18 were prepared. […]. UV–Vis spectra were recorded from 210 to 450 nm.
For the first measure, 150 µL of ligand solution were diluted in 2.85 mL of MeOH into sample cuvette, while only MeOH was placed in reference cuvette and the UV–Vis spectrum was recorded. For subsequent measurements, 2.85 mL of the opportune metal solution were placed both in a sample cuvette and in a reference cuvette; then 150 µL of ligand solution were added to a sample cuvette, while 150 µL of MeOH were added to the reference cuvette and the UV–Vis spectra were recorded. The spectra thus obtained were superimposed to observe the variations present between the ligand alone and in presence of increasing amount of metal.
To determine the stoichiometric coefficients of the complexes, Job’s method was used, which requires the mixing, in appropriate proportions, of the equimolar solution of metal ion and ligand, so that the final volume and the total moles present in the cuvette are equal for each measurement. The absorbance values were recorded at the wavelengths, extrapolated from the UV–Vis titration spectra, where the maximum variation of absorbance was observed. At the same time two solutions in MeOH of equal concentration were prepared, one of ligand and one of metal ion, diluting the solutions 1 M of CuSO4·5H2O and Zn(NO3)2·6H2O and 0.1 M of FeCl3·6H2O previously prepared. The concentrations of the solutions used and the wavelengths in which the absorbance was recorded were: 2.96·10^−4 M for 12 and Fe^3+–251, 320 nm; 2.83·10^−4 M for 14 and Fe^3+–250, 310 nm; 2.90·10^−4 M for 18 and Fe^3+–245, 310 nm; 6.00·10^−4 M for 18 and Cu^2+–330 nm.
For each determination 9–20 measurements were made, introducing the appropriate volumes of metal and ligand solutions in the sample cuvette to obtain mole fractions of the ligand in the range 0.1–0.9, while appropriate volumes of ligand solution and MeOH were placed in the reference cuvette, to obtain the same concentration of ligand in the sample cuvette. The absorbance values of the metal ion, calculated by the Lambert–Beer relation, known the extinction coefficients ε of the metal ion at used wavelengths and the nominal concentrations of the metal ion for each measure, were algebraically subtracted from the recorded absorbance values, in order to obtain the exclusive absorbance variations due to the complex formation. […]

[2] = MTT cell viability assay; type: cell-based; conditions: human, U-87 MG glioblastoma astrocytoma cells, U-87 MG cells; for viability at 24 h, 10 µM: 10 µM (12 and 18: up to 10 µM)
Description: Compounds 12, 14 and 18 were tested to evaluate the cytotoxic effects on U-87 MG Cell Line from human brain (glioblastoma astrocytoma) at concentration ranging from 1 to 50 µM.
The compounds 12, 14 and 18 were evaluated for cell viability effects using the MTT assay. Briefly, U-87 MG Cell Line from human brain (glioblastoma astrocytoma) (ATCC, Manassas, VA, USA) were seeded into 96-well microtiter plates (NunclonTM, Nunc, Germany) at a density of 1.5 × 10^4 cells/well. […]. After an incubation time of 24 h, the medium was replaced by a new, fresh medium containing 0.5 mg/mL MTT (Sigma, Deisenhofen, Germany). After 2 h at 37 °C in 5%, CO2 unreacted dye was removed and the cells were dissolved by DMSO (Merck, Darmstadt, Germany). Absorbance was read at 570 nm by a microtiter spectrophotometer plate reader. The data were expressed as absorbance relative to untreated cells in the same experiment and standardized to 100%. All data points were performed in triplicate and at least three independent experiments.

[3] = biological target: T1, Electrophorus electricus AChE (EeAChE) (Electrophorus electricus, UniProt O42275); assay: Ellman's spectrophotometric method, percent inhibition of EeAChE (zero time and after 1 h incubation); type: biochemical
T1 construct: purchased Sigma-Aldrich (Milan, Italy)
Description: Regarding the synthesized compounds enzymatic inhibition studies were carried out on Electrophorus electricus AChE (EeAChE) and equine BChE (eqBChE), according to Ellman’s spectrophotometric method.
All other chemical and biological reagents and solvents used were of the highest analytical, commercially available grade. The water, utilized for the preparation of the phosphate buffer and of the solutions of compounds, was distilled and filtered on nylon membrane filters with 0.2 μm pore size with the Millipore® Filtration apparatus before each use. Micropipettes Labmate (BRAND Dig. 10–100 μL; Dig. 100–1000 μL; Dig. 0.1–2 μL) and Transferpette (HIGH TECH LAB LM200: 20–200 μL; LM5000: 1000–5000 μL) were used to collect the samples. The assays were carried out by double beam UV–Vis Lambda 40 Perkin Elmer spectrophotometer, using optical polystyrene cuvettes (10 × 10 × 45 mm, 340–800 nm optical transparency), each measure was repeated at least in triplicate. […] Vivaspin® 2 Sartorius, with a membrane of 3000 MWCO (molecular weight cutoff) consisting of polyethersulfone (PES), cellulose triacetate (CTA) and hydrosart, was used for the ultrafiltration procedures. An ALC PK110 bench-top centrifuge was used for centrifugation. The spectrophotometric method of Ellman, with minor modifications, was used to evaluate the inhibition of cholinesterase enzymes. […] EeAChE and eqBChE were periodically tested to evaluate the effective enzymatic activity.
An amount of 3.0 mL of a solution in 0.1 M phosphate buffer (pH = 7.4) containing DTNB (0.25 mM) and EeAChE (0.083 UmL^−1) or eqBChE (0.083 UmL^−1) were placed in a polystyrene cuvette of 1.0 cm path length; 1 µL of a solution in DMSO of the tested compound was added to obtain in cuvette concentration range 9 µM–0.09 µM. With this solution the blank was made.
Each experiment was repeated at least in triplicate.
The cuvettes were prepared consecutively at intervals of 3 min to allow equal incubation times.

[4] = read-out: % Inhibition vs. EeAChE ± SD, [I] 9 µM, 0.0833 U/mL enzyme, 100 µM acetylthiocholine

T1 sequence (O42275 24-633): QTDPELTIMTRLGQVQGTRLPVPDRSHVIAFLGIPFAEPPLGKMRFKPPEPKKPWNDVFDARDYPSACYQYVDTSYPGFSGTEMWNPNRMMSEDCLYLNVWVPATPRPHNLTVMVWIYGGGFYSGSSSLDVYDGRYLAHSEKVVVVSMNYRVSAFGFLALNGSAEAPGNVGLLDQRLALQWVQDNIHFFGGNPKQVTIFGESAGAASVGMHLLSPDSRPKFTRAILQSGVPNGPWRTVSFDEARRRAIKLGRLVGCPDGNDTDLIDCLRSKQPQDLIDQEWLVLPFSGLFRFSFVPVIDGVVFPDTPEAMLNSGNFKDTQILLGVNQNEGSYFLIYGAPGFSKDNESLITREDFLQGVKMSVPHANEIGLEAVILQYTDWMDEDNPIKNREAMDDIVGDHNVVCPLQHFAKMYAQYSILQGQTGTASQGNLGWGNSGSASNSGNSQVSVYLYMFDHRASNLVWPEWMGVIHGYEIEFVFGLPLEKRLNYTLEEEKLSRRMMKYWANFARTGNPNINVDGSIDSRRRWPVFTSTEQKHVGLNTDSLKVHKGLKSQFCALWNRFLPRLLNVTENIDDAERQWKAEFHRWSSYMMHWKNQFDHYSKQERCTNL

SMILES | X (mole fraction that causes the maximum variation of absorbance), Fe^3+ ([1]; Job's plot) | n (number of ligand molecules per cation), Fe^3+ ([1]; Job's plot) | chelating ability on the biometals Fe^3+, Cu^2+ and Zn^2+ [1] | viability at 24 h, 10 µM [2] | viability at 24 h, 50 µM [2] | % Inhibition vs. EeAChE ± SD ([3]; [I] 9 µM, 0.0833 U/mL enzyme, 100 µM acetylthiocholine) | inhibition at 9 µM [3, 4] | X (mole fraction that causes the maximum variation of absorbance), Cu^2+ ([1]; Job's plot, Cu^2+) | n (number of ligand molecules per cation), Cu^2+ ([1]; Job's plot, Cu^2+) | inhibition at 9 µM ([3]; 1 h, read-out: % Inhibition vs. EeAChE ± SD, [I] = 9 µM, t = 1 h incubation at 25 °C)
O=C(NCCCCCCNc1ccccn1)c1ccccc1 [Compound 12, N-(6-(pyridin-2-ylamino)hexyl)benzamide] | 0.69 | 2 | ability to chelate Fe^3+ and Cu^2+ ions | > 90% | > 35% | 34.0 ± 2.1% | 34% |  |  | 
O=C(Cc1ccc(Oc2ccccc2)cc1)NCCCCCCNc1ccccn1 [Compound 14, 2-(4-phenoxyphenyl)-N-(6-(pyridin-2-ylamino)hexyl)acetamide] | 0.70 | 2 | ability to chelate Fe^3+ and Cu^2+ ions | > 65% | > 30% |  | 42.6 ± 1.4% |  |  | 
O=C(NCCCCCCNc1ccccn1)Oc1ccccc1 [Compound 18, Phenyl (6-(pyridin-2-ylamino)hexyl)carbamate] | 0.69 | 2 | ability to chelate Fe^3+ and Cu^2+ ions | > 90% | > 35% |  |  | 0.49 | 1 | 41.6 ± 0.7%
